Structures can show the parent of a compound that is named as a salt. Where two headings read alike, the source gives them in different places.
Columns and labels:
[1] = target: T1, Factor Xa (Homo sapiens, UniProt P00742); assay: In vitro inhibition of purified enzymes, Ki determination: Factor Xa (hydrolysis of S-2765); type: biochemical; parameters: purchased Enzyme Research Laboratories (South Bend, Ind.); settings: purified activated human Factor X, substrate S-2765, 37° C., pH 7.5; read-out: KI FXa
Source text: (§1) Reagents: All buffer salts were obtained from Sigma Chemical Company (St. Louis, Mo.), and were of the highest purity available. The enzyme substrate, S-2765 (Z-D-Arg-Gly-Arg-p-nitroanilide) was obtained from DiaPharma (West Chester, Ohio). N-succinyl-Ala-Ala-Pro-Arg-p-nitroanilide (BACHEM L-1720) was obtained from BACHEM (King of Prussia, Pa.). N-p-Tosyl-Gly-Pro-Lys-p-nitroanilide (Sigma T6140), N-succinyl-Ala-Ala-Pro-Phe-p-nitroanilide (Sigma S7388), N-CBZ-Val-Gly-Arg-p-nitroanilide (Sigma C7271) was obtained from Sigma and N-succinyl-Ala-Ala-Pro-Val-p-nitroanilide (BACHEM L-1770) was obtained from BACHEM (King of Prussia, Pa.).
(§2) Human α-thrombin and human Factor Xa were obtained from Enzyme Research Laboratories (South Bend, Ind.). Human trypsin was obtained from Calbiochem (La Jolla, Calif.). Human plasmin was obtained from Enzyme Research Laboratories (South Bend, Ind.). Bovine a-chymotrypsin (Sigma C4129) and human kidney cell urokinase (Sigma U5004) was obtained from Sigma. Human leukocyte elastase was obtained from Elastin Products (Pacific, Mo.).
(§3) Ki Determinations: All assays are based on the ability of the test compound to inhibit the enzyme-catalyzed hydrolysis of a peptide p-nitroanilide substrate. In a typical Ki determination, substrate is prepared in DMSO, and diluted into an assay buffer consisting of 50 mM HEPES, pH 7.5, 200 mM NaCl, 0.05% n-octyl b-d-glucopyranoside. The final concentrations for each of the substrates are listed below. In general, substrate concentrations are lower than the experimentally determined value for Km. Test compounds are prepared as 10 mM solutions in DMSO. Dilutions are prepared in DMSO yielding 7 final concentrations encompassing a 200-fold concentration range. Enzyme solutions are prepared at the concentrations listed below in assay buffer.
(§4) Reactions were initiated by the addition of a […] aliquot of enzyme and the absorbance increase at 405 nm is recorded for 15 minutes. Data corresponding to less than 10% of the total substrate hydrolysis were used in the calculations. The ratio of the velocity (rate of change in absorbance as a function of time) for a sample containing no test compound is divided by the velocity of a sample containing test compound, and is plotted as a function of test compound concentration. The data are fit to a linear regression, and the value of the slope of the line calculated. The inverse of the slope is the experimentally determined apparent Ki value (Ki app). The Ki is calculated from the Ki app using the Ki factor specific for the assay, where Ki=Ki app×Ki factor, or Ki=Ki app×(1/ (1+[S]/Km)).
Substrate solutions were prepared at a concentration of 107 mM in assay buffer. Final DMSO concentration was 3.3%. Purified activated human Factor X was diluted into assay buffer to a concentration of 16 nM. Final reagent concentrations were: [Factor Xa]=0.53 nM, [S-2765]=100 mM.

[2] = target: T2, human α-thrombin (Homo sapiens, UniProt P00734); assay: In vitro inhibition of purified enzymes, Ki determination: thrombin (hydrolysis of N-succinyl-Ala-Ala-Pro-Arg-p-nitroanilide); type: biochemical; settings: substrate N-succinyl-Ala-Ala-Pro-Arg-p-nitroanilide, 37° C., pH 7.5
T2 construct: Purified human a-thrombin was diluted into assay buffer; purchased Enzyme Research Laboratories (South Bend, Ind.)
Source text: as §1, §2, §3, §4
Thrombin: Thrombin activity was assessed as the ability to hydrolyze the substrate N-succinyl-Ala-Ala-Pro-Arg-p-nitroanilide (Km=320 mM, Ki factor=0.76). Substrate solutions were prepared at a concentration of 107 mM in assay buffer. Final DMSO concentration was 4.3%. Purified human a-thrombin was diluted into assay buffer to a concentration of 33 nM. Final reagent concentrations were: [thrombin]=1.1 nM, [substrate N-succinyl-Ala-Ala-Pro-Arg-p-nitroanilide]=100 mM.

[3] = target: T3, human trypsin; assay: In vitro inhibition of purified enzymes, Ki determination: trypsin (hydrolysis of S-2765); type: biochemical; settings: substrate S-2765, 37° C., pH 7.5
T3 construct: Purified human trypsin was diluted into assay buffer to a concentration of 10 nM
Source text: as §1, §2, §3, §4
Trypsin: Trypsin activity was assessed as the ability to hydrolyze the substrate S-2765 (Z-D-Arg-Gly-Arg-p-nitroanilide, Km=61 mM, Ki factor=0.50). Substrate solutions were prepared at a concentration of 64 mM in assay buffer. Final DMSO concentration was 3.3%. Purified human trypsin was diluted into assay buffer to a concentration of 10 nM. Final reagent concentrations were: [Trypsin]=0.33 nM, [S-2765]=60 mM.

[4] = target: T1, Factor Xa; settings: background statement; cited from earlier work

T1 sequence (P00742 235-488 limits assumed): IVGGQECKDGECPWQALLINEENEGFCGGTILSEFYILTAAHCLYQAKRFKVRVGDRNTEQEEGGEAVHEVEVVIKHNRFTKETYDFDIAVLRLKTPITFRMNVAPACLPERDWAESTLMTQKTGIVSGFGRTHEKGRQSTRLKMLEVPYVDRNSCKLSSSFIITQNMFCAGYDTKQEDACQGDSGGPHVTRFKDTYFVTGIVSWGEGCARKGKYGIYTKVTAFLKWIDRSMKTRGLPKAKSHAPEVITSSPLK
T1 sequence (P00742 41-179 partner limits assumed): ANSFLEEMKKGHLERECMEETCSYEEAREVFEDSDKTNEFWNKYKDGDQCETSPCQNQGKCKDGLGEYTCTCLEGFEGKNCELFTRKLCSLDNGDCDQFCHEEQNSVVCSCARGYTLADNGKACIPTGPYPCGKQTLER

Compound | Ki [1] [nM] | Ki [2] [nM] | Ki [3] [nM] | Ki [4] [nM]
COc1cccc(-n2nc(C)c3ccc(-c4ccc(N5CCCCC5=O)cc4)c(F)c32)c1 [Example 4, 1-{4-[7-fluoro-1-(3methoxy-phenyl)-3-methyl-1H-indazol-6-yl]-phenyl}-piperidin-2-one] | 660 | – | – | –
Cc1nn(-c2cccc(CN)c2)c2c(F)c(-c3ccc(N4CCCCC4=O)cc3)ccc12 [Example 6, 1-{4-[1-(3-Aminomethyl-phenyl)7-fluoro-1-3-methyl-1H-indazol-6-yl]-phenyl}-piperidin-2-one] | 120 | > 15200 | > 10000 | –
Cc1nn(-c2cccc(CN)c2)c2c(F)c(-c3ccc(N4CCCC4=O)cc3)ccc12 [Example 7, 1-{4-[1-(3-Aminomethyl-phenyl)-7-fluoro-1-3-methyl-1H-indazol-6-yl]-phenyl}-pyrolidin-2-one] | 220 | > 15200 | 700 | –
Cc1nn(-c2cccc(CN)c2)c2c(F)c(-c3ccc(C#Cc4ccc5nc(N)sc5c4)cc3)ccc12 [Example 15, 6{4-1-(3-Aminomethyl-phenyl)-7-fluoro-3-methyl-1H-indazol]-phenylethynyl-benzothiazol-2-ylamine] | 2820 | > 15200 | 1590 | –
Cc1nn(-c2ccc3onc(N)c3c2)c2c(F)c(-c3ccc(-n4ccccc4=O)cc3F)ccc12 [Example 25, 1-{4-[1-(3-Amino-benzo[a]isoxazol-5-yl)-7-fluoro-3-methyl-1H-indazol-6-yl]-3-fluoro-phenyl}-1H-pyridin-2-one] | 40 | > 15200 | > 10000 | –
Cc1nn(-c2cccc(CN)c2)c2c(F)c(-c3ccc(N(C)c4ccncc4)cc3F)ccc12 [Example 35] | 33 | > 15200 | 2900 | –
NC(=O)c1nn(-c2ccc3onc(N)c3c2)c2c(F)c(-c3ccc(N4CCOCC4=O)cn3)ccc12 [Example 43, 1-(3-Amino-benzo[d]isoxazol-5-yl)-7-fluoro-6-[5-(3-oxo-morpholin-4-yl)-pyridin-2-yl]-1H-indazole-3-carboxylic acid amide; methanesulfonic acid salt] | 6 | > 15200 | > 10000 | –
CN(C)CCCN(c1ccncc1)c1ccc(-c2ccc3c(C(N)=O)nn(-c4ccc5onc(N)c5c4)c3c2F)c(F)c1 [Example 59, 1-(3-Amino-benzo[d]isoxazol-5-yl)-6-{4-[(3-dimethylamino-propyl)-pyridin-4-yl-amino]-2-fluoro-phenyl}-7-fluoro-1H-indazole-3-carboxamide dimesylate salt] | 5 | > 15200 | > 10000 | –
CN(C)Cc1cnccc1-c1ccc(-c2ccc3c(C(N)=O)nn(-c4ccc5onc(N)c5c4)c3c2F)c(F)c1 [Example 66, 1-(3-Amino-benzo[d]isoxazol-5-yl)-6-[4-(3-dimethylaminomethyl-pyridin-4-yl)-2-fluoro-phenyl]-7-fluoro-1H-indazole-3-carboxylic acid amide] | 2 | > 15200 | > 10000 | –
Cc1nn(-c2cccc(C(=N)N)c2)c2c(F)c(-c3ccc(N4CCCCC4=O)cc3F)ccc12 [Example 75, 3-{7-Fluoro-6-[2-fluoro-4-(2-oxo-piperidin-1-yl)-phenyl]-3-methyl-indazol-1-yl}-benzamidine] | 1 | 1600 | 140 | –
Cc1nn(-c2cccc(CN)c2)c2c(F)c(-c3ccc(-c4ccccc4S(C)(=O)=O)cc3F)ccc12 [Example 82, 3-[7-Fluoro-6-(3-fluoro-2′-methanesulfonyl-biphenyl-4-yl)-3-methyl-indazol-1-yl]-benzylamine] | 45 | > 15200 | 1500 | –
Cc1nn(-c2ccc3onc(N)c3c2)c2c(F)c(-c3ccc(N4CCCCC4=O)cc3)ccc12 [Example 86, 1-{4-[1-(3-Amino-benzo[d]isoxazol-5-yl)-7-fluoro-3-methyl-1H-indazol-6-yl]-phenyl}-piperidin-2-one] | 48 | > 15200 | > 10000 | –
Cc1nn(-c2ccc3ccnc(N)c3c2)c2c(F)c(-c3ccc(-c4ccccc4S(C)(=O)=O)cc3F)ccc12 [Example 93, 7-[7-Fluoro-6-(3-fluoro-2′-methanesulfonyl-biphenyl-4-yl)-3-methyl-indazol-1-yl]-isoquinolin-1-ylamine] | 46 | > 15200 | > 10000 | –
O=C1CCCCN1c1ccc(-c2ccc3c(C(F)(F)F)nn(-c4cccc(Cl)c4)c3c2F)c(F)c1 [Example 95, 1-{4-[1-(3-Chloro-phenyl)-7-fluoro-3-trifluoromethyl-1H-indazol-6-yl]-3-fluoro-phenyl}-piperidin-2-one] | 340 | > 15200 | > 10000 | –
antistasin [ATS] | – | – | – | 0.05
tick anticoagulant peptide (YNRLCIKPRDWIDECDSNEGGERAYFRNGKGGCDSFWICPEDHTGADYYSSYRDCFNACI; UniProt P17726 1-60, looked up) [TAP] | – | – | – | ~0.5
